Read-outs that look alike come from different tables or passages of the source.
Key:
corn rust = experiment: Protectant activity in vivo (whole plant) against corn rust; details: for pest or weed control at 6.25 µg/mL / pest or weed control at 25 µg/mL / pest or weed control at 100 µg/mL / pest or weed control at 400 µg/mL: Zea mays, 168 h
Description: (§1) The method is as followed: The whole plant is used in this test. The compound is dissolved in a proper solvent to get mother solution. The proper solvent is selected from acetone, methanol, DMF and so on according to their dissolving capability to the sample. The volume rate of solvent and testing solution (v/v) is equal to or less than 5%. The mother solution is diluted with water containing 0.1% tween-80 to get the testing solution whose concentration is designed. The testing solution is sprayed to the host plant by a special plant sprayer. The plant is inoculated with fungus after 24 hours. According to the infecting characteristic of fungus, the plant is stored in a humidity chamber and then transferred into greenhouse after infection is finished. And the other plants are placed in greenhouse directly. The activity of compound is obtained by eyeballing after 7 days in common.

cucumber downy mildew = experiment: Protectant activity in vivo (whole plant) against cucumber downy mildew; details: for pest or weed control at 25 µg/mL / pest or weed control at 50 µg/mL / pest or weed control at 100 µg/mL / pest or weed control at 12.5 µg/mL / pest or weed control at 400 µg/mL: Cucumis sativus, 168 h; for pest or weed control at 100 µg/mL: 100 mg/L; for pest or weed control at 12.5 µg/mL: 12.5 mg/L
Description: as §1

cucumber gray mold = experiment: Activity in vitro (96-well, High Through Put): inhibition rate against cucumber gray mold; type: cell-based; details: for inhibition at 0.3 µg/mL: 0.3 mg/L; for inhibition at 0.9 µg/mL: 0.9 mg/L; for inhibition at 8.3 µg/mL: 8.3 mg/L; for inhibition at 25 µg/mL: dose 25 mg/L
Description: The method is as followed: High Through Put is used in the test. The compound is dissolved in a proper solvent to become a testing solution whose concentration is designed. The solvent is selected from acetone, methanol, DMF and so on according to their dissolving capability to the sample. In a no animalcule condition, the testing solution and pathogens suspension are added into the cells of 96 cells culture board, which then should be placed in the constant temperature box. 24 hours later, pathogen germination or growth can be investigated by eyeballing, and the activity in vitro of the compound is evaluated based on germination or growth of control treatment.

[1] = 25 mg/L, read-out: the protectant activity (%) against cucumber downy mildew
[2] = 50 mg/L, read-out: the protectant activity (%) against cucumber downy mildew
[3] = read-out: the protectant activity (%) against cucumber downy mildew
[4] = read-out: the inhibition rate against cucumber gray mold (%)
[5] = 2.8 mg/L, read-out: the inhibition rate against cucumber gray mold (%)
[6] = 400 mg/L, read-out: the protectant activity (%) against corn rust
[7] = dose 400 mg/L, read-out: protectant activity against corn rust in vivo

Cc1ccccc1Nc1c(Cl)c(Cl)c(C#N)c(Cl)c1C#N [Compound B-1]
protectant activity against corn rust in vivo (corn rust; dose 400 mg/L): 100%

N#Cc1c(F)c(F)c(Nc2c(Cl)cc(C(F)(F)F)cc2Cl)c(C#N)c1F [Compound B-111]
protectant activity against corn rust in vivo (corn rust; dose 400 mg/L): 100% | protectant activity against cucumber downy mildew in vivo (cucumber downy mildew; dose 50 mg/L): 98% | protectant activity against cucumber downy mildew in vivo (cucumber downy mildew; dose 100 mg/L): 100% | protectant activity against cucumber downy mildew in vivo (cucumber downy mildew; dose 400 mg/L): 100%

N#Cc1cc([N+](=O)[O-])ccc1Nc1c(Cl)c(Cl)c(C#N)c(Cl)c1C#N [Compound B-38]
protectant activity against corn rust in vivo (corn rust; dose 400 mg/L): 100% | protectant activity against cucumber downy mildew in vivo (cucumber downy mildew; dose 400 mg/L): 100%

Cc1ccc(Nc2c(F)c(F)c(C#N)c(F)c2C#N)cc1 [KC9]
pest or weed control at 25 µg/mL (cucumber downy mildew; [1]): 20% | pest or weed control at 50 µg/mL (cucumber downy mildew; [2]): 30% | pest or weed control at 100 µg/mL (cucumber downy mildew; [3]): 65% | pest or weed control at 25 µg/mL (cucumber downy mildew; dose 25 mg/L, read-out: protectant activity against cucumber downy mildew in vivo): 20% | pest or weed control at 50 µg/mL (cucumber downy mildew; dose 50 mg/L, read-out: protectant activity against cucumber downy mildew in vivo): 30% | inhibition at 0.3 µg/mL (cucumber gray mold): 0% | inhibition at 0.9 µg/mL (cucumber gray mold; [4]): 0% | inhibition at 2.8 µg/mL (cucumber gray mold; [5]): 0% | inhibition at 8.3 µg/mL (cucumber gray mold; [4]): 80% | inhibition at 2.8 µg/mL (cucumber gray mold; in vitro, dose 2.8 mg/L, read-out: inhibition rate against cucumber gray mold): 0%

N#Cc1c(F)c(Cl)c(Nc2ccccc2)c(C#N)c1F [KC17]
pest or weed control at 6.25 µg/mL (corn rust; 6.25 mg/L): 0% | pest or weed control at 25 µg/mL (corn rust; 25 mg/L): 0% | pest or weed control at 100 µg/mL (corn rust; 100 mg/L): 0% | pest or weed control at 400 µg/mL (corn rust; [6]): 0% | pest or weed control at 400 µg/mL (corn rust; [7]): 0% | pest or weed control at 12.5 µg/mL (cucumber downy mildew): 0% | pest or weed control at 25 µg/mL (cucumber downy mildew; [1]): 0% | pest or weed control at 50 µg/mL (cucumber downy mildew; [2]): 0% | pest or weed control at 100 µg/mL (cucumber downy mildew; [3]): 0% | pest or weed control at 400 µg/mL (cucumber downy mildew; dose 400 mg/L): 0%

N#Cc1c(Cl)c(Cl)c(Nc2cc(C(F)(F)F)ccc2Cl)c(Cl)c1C#N [Compound A-19]
protectant activity against corn rust in vivo (corn rust; dose 400 mg/L): 80% | protectant activity against cucumber downy mildew in vivo (cucumber downy mildew; dose 400 mg/L): 100%

N#Cc1c(F)c(F)c(C#N)c(Nc2ccc(Cl)cc2Cl)c1F [Compound C-71]
inhibition rate against cucumber gray mold (cucumber gray mold; in vitro, dose 0.9 mg/L): 80%

COc1ccc(Nc2c(F)c(F)c(C#N)c(C#N)c2F)c(OC)c1 [KC27]
pest or weed control at 6.25 µg/mL (corn rust; 6.25 mg/L): 0% | pest or weed control at 25 µg/mL (corn rust; 25 mg/L): 0% | pest or weed control at 100 µg/mL (corn rust; 100 mg/L): 0% | pest or weed control at 400 µg/mL (corn rust; [6]): 0% | pest or weed control at 400 µg/mL (corn rust; [7]): 0% | pest or weed control at 12.5 µg/mL (cucumber downy mildew): 0% | pest or weed control at 25 µg/mL (cucumber downy mildew; [1]): 0% | pest or weed control at 50 µg/mL (cucumber downy mildew; [2]): 0% | pest or weed control at 100 µg/mL (cucumber downy mildew; [3]): 0% | pest or weed control at 400 µg/mL (cucumber downy mildew; dose 400 mg/L): 0% | inhibition at 0.3 µg/mL (cucumber gray mold): 0% | inhibition at 0.9 µg/mL (cucumber gray mold; [4]): 0% | inhibition at 2.8 µg/mL (cucumber gray mold; [5]): 0% | inhibition at 8.3 µg/mL (cucumber gray mold; [4]): 0% | inhibition at 25 µg/mL (cucumber gray mold; in vitro): 0%

Cc1ccc(Nc2c(Cl)c(F)c(C#N)c(F)c2C#N)cc1 [KC19]
pest or weed control at 6.25 µg/mL (corn rust; 6.25 mg/L): 0% | pest or weed control at 25 µg/mL (corn rust; 25 mg/L): 0% | pest or weed control at 100 µg/mL (corn rust; 100 mg/L): 0% | pest or weed control at 400 µg/mL (corn rust; [6]): 0% | pest or weed control at 400 µg/mL (corn rust; [7]): 0% | inhibition at 0.3 µg/mL (cucumber gray mold): 0% | inhibition at 0.9 µg/mL (cucumber gray mold; [4]): 0% | inhibition at 2.8 µg/mL (cucumber gray mold; [5]): 0% | inhibition at 8.3 µg/mL (cucumber gray mold; [4]): 0% | inhibition at 25 µg/mL (cucumber gray mold; in vitro): 0%

N#Cc1c(Cl)c(Cl)c(C#N)c(Nc2ccc(Cl)cc2[N+](=O)[O-])c1Cl [Compound C-33]
protectant activity against corn rust in vivo (corn rust; dose 400 mg/L): 100% | protectant activity against cucumber downy mildew in vivo (cucumber downy mildew; dose 400 mg/L): 100%

N#Cc1c(Cl)c(Cl)c(Nc2cc(Cl)cnc2Cl)c(Cl)c1C#N [Compound A-85]
protectant activity against corn rust in vivo (corn rust; dose 400 mg/L): 80% | protectant activity against cucumber downy mildew in vivo (cucumber downy mildew; dose 400 mg/L): 100%

N#Cc1cc(C#N)c(Nc2c(Cl)c(C#N)c(Cl)c(Cl)c2C#N)nc1Cl [Compound C-114]
protectant activity against corn rust in vivo (corn rust; dose 400 mg/L): 100%

N#Cc1cc(C#N)c(Cl)c(Nc2c(Cl)c(Cl)c(C#N)c(C#N)c2Cl)c1 [Compound A-59]
protectant activity against corn rust in vivo (corn rust; dose 400 mg/L): 100% | protectant activity against cucumber downy mildew in vivo (cucumber downy mildew; dose 400 mg/L): 100%

N#Cc1c(Cl)c(Cl)c(C#N)c(Nc2c(Br)cc([N+](=O)[O-])cc2Br)c1Cl [Compound C-41]
the protectant activity (%) against corn rust (corn rust; 6.25 mg/L): 50% | the protectant activity (%) against corn rust (corn rust; 25 mg/L): 90% | the protectant activity (%) against corn rust (corn rust; 100 mg/L): 100% | the protectant activity (%) against corn rust (corn rust; 400 mg/L): 100% | protectant activity against corn rust in vivo (corn rust; dose 25 mg/L): 90% | protectant activity against corn rust in vivo (corn rust; dose 100 mg/L): 100% | protectant activity against corn rust in vivo (corn rust; dose 400 mg/L): 100%

CCN(CC)c1c(Cl)c(Nc2ccccc2[N+](=O)[O-])c(C#N)c(Cl)c1C#N [Compound B-70]
protectant activity against corn rust in vivo (corn rust; dose 400 mg/L): 100%

— patent publication US8937072B2, “Substituted cyanoaniline compounds, preparation and use thereof” (Sinochem Corporation, priority 2011, dated 2015)
